Tested on: cholesterol biosynthesis
Test: Test A: Inhibition of cholesterol biosynthesis from acetate in vitro (rat liver microsome and sup fraction)
Type: biochemical, male Wistar rat
Details: based on the activities of CS-514 being evaluated to be 1
Method: Test A: Inhibition of cholesterol biosynthesis from acetate in vitro
Enzyme solution was prepared from liver of male Wistar rat billialy cannulated and discharged bile for over 24 hours. Liver was cut out at mid-dark and microsome and supernatant fraction which was precipitable with 40-80% of saturation of ammonium sulfate (sup fraction) were prepared from liver homogenate according to the modified method of Knauss et al; Kuroda, M, et al, Biochim. Biophys. Acta, 489, 119 (1977). For assay of cholesterol biosynthesis, microsome (0.1 mg protein) and sup fraction (1.0 mg protein) were incubated for 2, hours at 37° C. in 200 μl of the reaction mixture containing ATP; 1 mM, Glutathione; 6 mM, Glucose-1-phosphate; 10 mM, NAD; 0.25 mM, NADP; 0.25 mM, CoA; 0.04 mM and 0.2 mM [2-^14 C]sodium acetate (0.2 μCi) with 4 μl of test compound solution dissolved in water or dimethyl sulfoxide. To stop reaction and saponify, 1 ml of 15% EtOH-KOH was added to the reactions and heated at 75° C. for 1 hour. […] Inhibitory activity of compounds was indicated with IC50.

Structure (SMILES) | Relative activities by Test A
CCOC(=O)CC(O)CC(O)/C=C/c1c(CC)nc2ccccc2c1-c1ccc(F)cc1 (centres unmarked) [I-117] | 0.37
CC(C)c1nc2c(Cl)cc(Cl)cc2c(-c2ccc(F)cc2)c1/C=C/C(O)CC(O)CC(=O)O (centres unmarked) [I-522] | 0.76

Reference: patent US5872130A, “Quinoline type mevalonoactones” (Nissan Chemical Industries Ltd., priority 1988, dated 1999)
